GI50 and TGI data for 19 compounds are collected here from PubChem BioAssay (NCI).

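Method: 48-hour compound exposure of cells in 96-well plates, five concentrations, linear interpolation of endpoints. Here, GI50 denotes the concentration required for 50% inhibition of growth. TGI: concentration producing complete growth inhibition.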

Test systems include HCC-2998 colon; OVCAR-3 ovarian; OVCAR-4 ovarian; SF-268 CNS; SF-295 CNS; SK-MEL-2 melanoma; SW-620 colon; HOP-92 NSCLC; DU-145 prostate; SK-OV-3 ovarian.
What all share (assay): DTP human tumour cell line panel, 48 h

In general, GI50 refers to the concentration at which growth is held to half of that of the control. A word on the TGI: it is the concentration giving total growth inhibition. Low values mean more potent growth arrest, high ones less potent growth arrest. For `CC(=O)[CH-]C(C)=O.CC(=O)[CH-]C(C)=O.CC(=O)[CH-]C(C)=O.[Ga+3]`, the GI50 with HCC-2998 colon, in the assay with OVCAR-3 ovarian, in the assay with OVCAR-4 ovarian, in the assay with SF-268 CNS, with SF-295 CNS and in the assay on SK-MEL-2 melanoma was greater than 100 µM throughout. The GI50 in the assay on SW-620 colon was greater than 100 µM. For the same compound, the concentration for total growth inhibition (TGI) with HCC-2998 colon, in the assay with OVCAR-3 ovarian, in the assay on OVCAR-4 ovarian, in the assay on SF-268 CNS, in the assay with SF-295 CNS and in the assay with SK-MEL-2 melanoma was greater than 100 µM in each case. Moreover, in the assay with SW-620 colon, the TGI is greater than 100 µM.
As to `O=[N+]([O-])/C=C/c1ccc(Cl)cc1Cl`, the TGI in the assay with HCC-2998 colon came to 29 µM; in the assay on HOP-92 NSCLC, 31 µM; in the assay with OVCAR-3 ovarian, 53.6 µM; in the assay on OVCAR-4 ovarian it was 34.8 µM; in the assay with SF-268 CNS it was 44.5 µM; in the assay with SF-295 CNS, 32 µM. In addition, the values for the total growth inhibition concentration (TGI) in the assay on SK-MEL-2 melanoma and in the assay with SW-620 colon were 40.2 µM and 37.5 µM, respectively.
For the compound `C=CC[N+]1(CC)CCN=C1CCCCCCCCCCCCCCCCC` (stereo not drawn), the GI50 in the assay with DU-145 prostate was 0.659 µM; in the assay with HCC-2998 colon, 0.241 µM; in the assay on SF-268 CNS it was 0.236 µM; with SF-295 CNS, 0.249 µM; in the assay with SK-MEL-2 melanoma, 0.538 µM; in the assay with SK-OV-3 ovarian it was 1.12 µM. Also, in the assay on SW-620 colon, the GI50 was 0.499 µM. In addition, the TGI in the assay with DU-145 prostate is 2.02 µM; with HCC-2998 colon, 0.797 µM; in the assay with SF-268 CNS it was 0.61 µM; with SF-295 CNS it was 0.936 µM; in the assay with SK-MEL-2 melanoma, 1.59 µM; with SK-OV-3 ovarian it was 2.33 µM. The TGI with SW-620 colon turned out to be 1.71 µM.
Regarding `CC(=O)CC(=O)CCC(=O)Nc1cccc(C(F)(F)F)c1`, the TGI with HCC-2998 colon, in the assay with HOP-92 NSCLC, in the assay with OVCAR-3 ovarian, with OVCAR-4 ovarian, in the assay with SF-268 CNS and in the assay with SF-295 CNS was greater than 100 µM each time. Further, the TGI in the assay with SK-MEL-2 melanoma, in the assay on SK-OV-3 ovarian and with SW-620 colon was greater than 100 µM throughout.
As to `CC(=O)OCC(CC[CH2][Sn]([Cl])([Cl])[c]1ccccc1)OC(C)=O` (stereo not drawn), the GI50 with HCC-2998 colon was 28.2 µM; in the assay with HOP-92 NSCLC it was 17.1 µM; in the assay on OVCAR-3 ovarian it was 20 µM; in the assay with OVCAR-4 ovarian it was 16.4 µM; with SF-268 CNS, 18.6 µM; in the assay with SF-295 CNS it was 24.5 µM. Besides, the results for the GI50 with SK-MEL-2 melanoma, in the assay with SK-OV-3 ovarian and in the assay with SW-620 colon were 18.8 µM, 21.1 µM and 16.7 µM, respectively. Also, the TGI in the assay on HCC-2998 colon came out at 83.1 µM; in the assay on HOP-92 NSCLC, 33.4 µM; with OVCAR-3 ovarian it was 42.8 µM; with OVCAR-4 ovarian, 31.4 µM; in the assay with SF-268 CNS it was 33.9 µM; in the assay with SF-295 CNS it was 60 µM. Also, the TGI with SK-MEL-2 melanoma amounted to 36.4 µM; with SK-OV-3 ovarian it was 44.2 µM; in the assay on SW-620 colon it was 30.3 µM.
Consider `O=C(CO)C1CC2C=CC1C2` (stereo not drawn), for which the TGI with HOP-92 NSCLC, with OVCAR-3 ovarian, with OVCAR-4 ovarian, in the assay on SF-268 CNS, in the assay on SF-295 CNS and in the assay on SK-MEL-2 melanoma was greater than 100 µM each time. The TGI in the assay with SK-OV-3 ovarian and in the assay on SW-620 colon was greater than 100 µM in each case.
With `C[P+]1(c2ccccc2)CCCCC1`, the total growth inhibition concentration (TGI) in the assay with HCC-2998 colon, with OVCAR-3 ovarian, in the assay with OVCAR-4 ovarian, with SF-268 CNS, in the assay on SF-295 CNS and in the assay on SK-MEL-2 melanoma was greater than 100 µM throughout. For the same compound, the concentration for total growth inhibition (TGI) in the assay on SK-OV-3 ovarian and in the assay on SW-620 colon was greater than 100 µM throughout.
Consider `Clc1ccc([I+]c2ccc(Cl)cc2Cl)c(Cl)c1`, for which the GI50 in the assay on DU-145 prostate is 1.92 µM; in the assay on OVCAR-3 ovarian it was 1.65 µM; with OVCAR-4 ovarian it was 1.95 µM; in the assay on SF-268 CNS it was 2.14 µM; with SF-295 CNS it was 2.58 µM; with SK-MEL-2 melanoma, 2.62 µM. For the same compound, the GI50 was 4.17 µM in the assay on SK-OV-3 ovarian and 1.25 µM in the assay with SW-620 colon. The total growth inhibition concentration (TGI) in the assay on DU-145 prostate is 3.51 µM; in the assay on OVCAR-3 ovarian, 3.09 µM; in the assay on OVCAR-4 ovarian, 4.52 µM; in the assay on SF-268 CNS, 4.99 µM; in the assay with SF-295 CNS, 7.57 µM; with SK-MEL-2 melanoma, 5 µM. For the same compound, the values for the TGI in the assay with SK-OV-3 ovarian and in the assay with SW-620 colon were 12 µM and 3.75 µM, respectively.
Regarding `O=S(=O)(NCCCNc1nccc(-c2c(-c3ccc(F)cc3)nc3sccn23)n1)c1ccc(F)cc1`, the GI50 is 10.8 µM with DU-145 prostate; 20.6 µM with HCC-2998 colon; 3.53 µM in the assay on OVCAR-4 ovarian; 20 µM with SF-268 CNS; 20.6 µM with SF-295 CNS; 23.2 µM in the assay on SK-MEL-2 melanoma. Besides, the GI50 with SK-OV-3 ovarian is 17.1 µM; with SW-620 colon, 33.2 µM. For the same compound, the TGI was greater than 100 µM with DU-145 prostate; greater than 100 µM in the assay with HCC-2998 colon; 26.7 µM with OVCAR-4 ovarian; greater than 100 µM in the assay with SF-268 CNS; greater than 100 µM with SF-295 CNS; greater than 100 µM in the assay on SK-MEL-2 melanoma. Besides, the TGI with SK-OV-3 ovarian and with SW-620 colon was greater than 100 µM each time.
Consider `C=C1C=CC2(Br)OC3CC(C)(Cl)C(Br)CC13C2(C)C` (stereo not drawn), for which the TGI with HCC-2998 colon is 42.7 µM; in the assay with HOP-92 NSCLC it was 50.8 µM; in the assay with OVCAR-3 ovarian, 40.8 µM; with OVCAR-4 ovarian, greater than 100 µM; in the assay on SF-268 CNS, greater than 100 µM; with SF-295 CNS it was 45.5 µM. Also, the TGI was 31.9 µM in the assay on SK-MEL-2 melanoma, greater than 100 µM in the assay on SK-OV-3 ovarian and 56 µM in the assay on SW-620 colon.
With `O=C(c1c(O)cc(O)cc1O)C1Cc2ccccc21` (stereo not drawn), the TGI with HCC-2998 colon, in the assay on HOP-92 NSCLC, in the assay on OVCAR-4 ovarian, in the assay on SF-268 CNS, in the assay on SF-295 CNS and in the assay on SK-MEL-2 melanoma was greater than 100 µM throughout. The total growth inhibition concentration (TGI) in the assay on SK-OV-3 ovarian and in the assay on SW-620 colon was greater than 100 µM throughout.
As to `CCOC(=O)C(CCCNC(=O)OC(C)(C)C)N(Cc1ccc(OC)cc1OC)C(=O)CC(=O)CP(=O)(OCC)OCC` (stereo not drawn), the total growth inhibition concentration (TGI) with HCC-2998 colon, in the assay on HOP-92 NSCLC, in the assay on OVCAR-3 ovarian, in the assay with OVCAR-4 ovarian, in the assay with SF-268 CNS and with SF-295 CNS was greater than 100 µM in each case. For the same compound, the TGI with SK-MEL-2 melanoma and with SK-OV-3 ovarian was greater than 100 µM each time.
Take `Cc1ccc(C2=Nc3ccccc3SC(c3cccc4c3OCO4)C2)cc1` (stereo not drawn): the TGI with HCC-2998 colon was found to be 41.3 µM; with OVCAR-3 ovarian, 28.5 µM; in the assay with OVCAR-4 ovarian, 33.7 µM; in the assay on SF-268 CNS it was 45.6 µM; with SF-295 CNS, 45.6 µM; with SK-MEL-2 melanoma, 44 µM. Further, the total growth inhibition concentration (TGI) came out at 76.3 µM in the assay on SK-OV-3 ovarian and 39.8 µM in the assay on SW-620 colon.
With `O=C(Cc1ccccc1)C(c1ccccc1)S(=O)(=O)c1ccccc1` (stereo not drawn), the TGI in the assay on HCC-2998 colon, in the assay with HOP-92 NSCLC, with OVCAR-3 ovarian, with OVCAR-4 ovarian, with SF-268 CNS and with SF-295 CNS was greater than 100 µM throughout. The TGI in the assay with SK-MEL-2 melanoma, in the assay on SK-OV-3 ovarian and in the assay with SW-620 colon was greater than 100 µM throughout.
`CC1CCC2C(CN(CC3=C(C(F)(F)F)OC4OC5(C)CCC6C(C)CCC3C46OO5)CC3=C(C(F)(F)F)OC4OC5(C)CCC6C(C)CCC3C46OO5)=C(C(F)(F)F)OC3OC4(C)CCC1C32OO4` (stereo not drawn): the GI50 is 6.3 µM with HOP-92 NSCLC; 10.2 µM with OVCAR-4 ovarian; 18.7 µM in the assay with SF-268 CNS; 36.6 µM in the assay with SK-MEL-2 melanoma; 35.2 µM in the assay with SK-OV-3 ovarian. Further, the TGI in the assay on HOP-92 NSCLC is 33.4 µM; in the assay with OVCAR-4 ovarian, 33.4 µM; in the assay with SF-268 CNS, 48.4 µM; in the assay with SK-MEL-2 melanoma it was greater than 100 µM; in the assay with SK-OV-3 ovarian, greater than 100 µM.
Take `CC(C)OC(=O)C1Cc2c([nH]c3ccccc23)C(c2ccccc2)N1` (stereo not drawn): the TGI in the assay on HCC-2998 colon, with HOP-92 NSCLC, with OVCAR-3 ovarian, in the assay on OVCAR-4 ovarian, with SF-268 CNS and in the assay on SF-295 CNS was greater than 100 µM each time. The concentration for total growth inhibition (TGI) was 41.2 µM with SK-MEL-2 melanoma, greater than 100 µM with SK-OV-3 ovarian and greater than 100 µM in the assay on SW-620 colon.
In the case of `C/C(=N\NC(=O)C(N)=O)c1c(O)cc(C)oc1=O`, the TGI in the assay on HCC-2998 colon, in the assay with HOP-92 NSCLC, in the assay with OVCAR-4 ovarian, with SF-268 CNS, with SF-295 CNS and with SK-MEL-2 melanoma was greater than 100 µM each time. The total growth inhibition concentration (TGI) in the assay on SK-OV-3 ovarian and with SW-620 colon was greater than 100 µM each time.
As for `CC(N)CC(=O)O` (stereo not drawn), the concentration for total growth inhibition (TGI) with HCC-2998 colon, with HOP-92 NSCLC, with OVCAR-3 ovarian, in the assay with OVCAR-4 ovarian, with SF-268 CNS and with SF-295 CNS was greater than 5000 µM each time. Also, the concentration for total growth inhibition (TGI) with SK-MEL-2 melanoma, in the assay with SK-OV-3 ovarian and with SW-620 colon was greater than 5000 µM each time.
Consider `CC1CCC2(C)C(CC=C(C=O)C2(O)C=O)C12CO2` (stereo not drawn), for which the TGI was determined as 11.3 µM in the assay with HCC-2998 colon; 5.29 µM in the assay with HOP-92 NSCLC; 2.6 µM in the assay on OVCAR-3 ovarian; 5.2 µM with OVCAR-4 ovarian; 18 µM with SF-268 CNS; 13.9 µM with SF-295 CNS. The TGI with SK-MEL-2 melanoma was determined as 8.53 µM; with SK-OV-3 ovarian it was 10.2 µM; in the assay with SW-620 colon, 8.77 µM.
